Source: US8486950B2, “Janus kinase inhibitor compounds and methods” (F. Hoffmann-La Roche AG, priority 2009, dated 2013)

Biological target: T1, TYK2 kinase domain (Homo sapiens, UniProt P29597)
T1 construct: made in house; host or cells: SF9 insect cells (recombinant baculovirus)
T1 sequence (P29597 873-1187): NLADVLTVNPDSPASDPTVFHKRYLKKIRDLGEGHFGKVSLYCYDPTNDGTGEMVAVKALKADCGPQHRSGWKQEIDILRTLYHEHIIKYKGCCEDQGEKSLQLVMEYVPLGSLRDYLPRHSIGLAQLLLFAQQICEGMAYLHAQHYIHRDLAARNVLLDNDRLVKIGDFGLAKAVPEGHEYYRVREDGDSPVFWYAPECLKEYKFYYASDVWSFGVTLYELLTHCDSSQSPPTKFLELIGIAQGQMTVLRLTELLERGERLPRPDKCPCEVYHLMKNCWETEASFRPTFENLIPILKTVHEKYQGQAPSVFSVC
Assay: TYK2 inhibition assay (Caliper LabChip, isolated kinase domain)
Type: biochemical
Conditions: not given
Text: The catalytically active kinase domain of human JAK1, JAK2, JAK3 or TYK2 was purified from extracts of SF9 insect cells infected with a recombinant baculovirus expression vector encoding the human JAK1, JAK2, JAK3 or TYK2 kinase domains (JAK1 amino acid residues N852-D1154 according to the numbering of GenBank sequence accession number P23458, JAK2 amino acid residues D812-G1132 according to the numbering of GenBank sequence accession number NP_004963.1; JAK3 amino acid residues S783-S1124 according to the numbering of GenBank sequence accession number P52333, and TYK2 amino acid residues N873-C1187 according to the numbering of GenBank sequence accession number P29597). The activity of the JAK1, JAK2, JAK3 or TYK2 kinase domains can be measured by a number of direct and indirect methods, including quantification of phosphorylation of peptide substrates derived from the human JAK3 protein (Saltzman et al., Biochem. Biophys. Res. Commun. 246:627-633 (2004)). The activity of the JAK1, JAK2, JAK3 or TYK2 kinase domains was measured in vitro by monitoring phosphorylation of JAK3 derived peptides using the Caliper LabChip technology (see Examples).
The activity of the isolated JAK1, JAK2 or TYK2 kinase domain was measured by monitoring phosphorylation of a peptide derived from JAK3 (SEQ ID NO:1 […] fluorescently labeled on the N-terminus with 5-carboxyfluorescein using the Caliper LabChip technology (Caliper Life Sciences, Hopkinton, Mass.). […] Reactions were incubated at 22° C. in 384-well polypropylene microtiter plates for 30 minutes and then stopped by addition of 25 uL of an EDTA containing solution (100 mM Hepes pH 7.2, 0.015% Brij-35, 150 mM EDTA), resulting in a final EDTA concentration of 50 mM. After termination of the kinase reaction, the proportion of phosphorylated product was determined as a fraction of total peptide substrate using the Caliper LabChip 3000 according to the manufacturer's specifications. Ki values were then determined using the Morrison tight binding model. Morrison, J. F., Biochim. Biophys. Acta. 185:269-296 (1969); William, J. W. and Morrison, J. F., Meth. Enzymol., 63:437-467 (1979).

SMILES	Ki
O=C(Nc1ccnc(NC(=O)[C@H]2C[C@@H]2c2nnn[nH]2)c1)c1c(Cl)cccc1Cl (relative stereo) [Example 320, N-(2-(trans-2-(1H-tetrazol-5-yl)cyclopropanecarboxamido)pyridin-4-yl)-2,6-dichlorobenzamide]	~0.052 µM
N#Cc1cc(Cl)c(C(=O)Nc2ccnc(NC(=O)C3CC3)c2)c(Cl)c1 [Example 256, 2,6-dichloro-4-cyano-N-(2-(cyclopropanecarboxamido)pyridin-4-yl)benzamide]	~0.002 µM

Same assay, conditions: isolated TYK2 kinase domain, 25 uM ATP; values given as 'about'; read-out: Ki values for TYK2 inhibition

SMILES	Ki
O=C(Nc1ccnc(NC(=O)[C@H]2C[C@H]2F)c1)c1c(Cl)cc(CO)cc1Cl (relative stereo) [Example 315, 2,6-dichloro-N-(2-(cis-2-fluorocyclopropanecarboxamido)pyridin-4-yl)-4-(hydroxymethyl)benzamide]	~0.008 µM
NC[C@H]1C[C@H]1C(=O)Nc1cc(NC(=O)c2c(F)cccc2Cl)ccn1 (relative stereo) [Example 608, cis-N-(2-(2-(aminomethyl)cyclopropanecarboxamido)pyridin-4-yl)-2-chloro-6-fluorobenzamide]	~0.14 µM
O=C(Nc1ccnc(NC(=O)C2CC2)c1F)c1c(Cl)cccc1Cl (single isomer, unassigned) [Example 263, 2,6-dichloro-N-(3-fluoro-2-cyclopropanecarboxamidopyridin-4-yl)benzamide]	~0.024 µM
O=C(Nc1cc(NC(=O)C2CC2)ncc1F)c1c(Cl)cccc1Cl (single isomer, unassigned) [Example 264, 2,6-dichloro-N-(5-fluoro-2-cyclopropanecarboxamidopyridin-4-yl)benzamide]	~0.01 µM
O=C(Nc1ccc(NC(=O)C2CC2)nc1)c1c(Cl)cccc1Cl [2,6-dichloro-N-(6-(cyclopropanecarboxamido)-pyridin-3-yl)benzamide, reference compound]	> 3.5 µM
Nc1cc(NC(=O)c2c(Cl)cccc2Cl)ccn1 [Example 2, N-(2-aminopyridin-4-yl)-2,6-dichlorobenzamide]	~0.85 µM
O=C(Nc1ccncn1)c1c(Cl)cccc1Cl [Example 3, 2,6-dichloro-N-(pyrimidin-4-yl)benzamide]	~0.72 µM
O=C(Nc1ccnc(Nc2nccs2)c1)c1c(Cl)cccc1Cl [Example 4, 2,6-dichloro-N-(2-(thiazol-2-ylamino)pyridin-4-yl)benzamide]	~0.38 µM
O=C(Nc1ccncc1)c1c(Cl)cc(-c2cc[nH]n2)cc1Cl [Example 11, 2,6-dichloro-4-(1H-pyrazol-3-yl)-N-(pyridin-4-yl)benzamide]	~0.65 µM
Cc1ccc(Cl)c(C(=O)Nc2ccncc2)c1F [Example 17, 6-chloro-2-fluoro-3-methyl-N-(pyridin-4-yl)benzamide]	~0.36 µM
O=C(Nc1ccncc1)c1c(Cl)cc(CO)cc1Cl [Example 76, 2,6-dichloro-4-(hydroxymethyl)-N-(pyridin-4-yl)benzamide]	~0.22 µM
COCCOc1ccc(Nc2cc(NC(=O)c3c(Cl)cccc3Cl)ccn2)cc1C(F)(F)F [Example 115, 2,6-dichloro-N-(2-(4-(2-methoxyethoxy)-3-(trifluoromethyl)phenyl-amino)pyridin-4-yl)benzamide]	~0.57 µM
O=C(Nc1ccnc(NC2CC2)n1)c1c(Cl)cccc1Cl [Example 156, 2,6-dichloro-N-(2-(cyclopropylamino)-pyrimidin-4-yl)benzamide]	~0.99 µM
O=C(Nc1ccnc(NC(=O)C2CC2)c1)c1c(Cl)cc(CO)cc1Cl [Example 178, 2,6-dichloro-N-(2-(cyclopropanecarboxamido)-pyridin-4-yl)-4-(hydroxymethyl)benzamide]	~0.005 µM
Cc1cc(Nc2nccc(NC(=O)c3c(Cl)cc(C#N)cc3Cl)c2[N+](=O)[O-])nc(C)n1 [Example 238, 2,6-dichloro-4-cyano-N-(2-(2,6-dimethylpyrimidin-4-ylamino)-3-nitropyridin-4-yl)benzamide]	~0.45 µM
CN(C)C(=O)c1cc(Cl)c(C(=O)Nc2ccnc(NC(=O)C3CC3)c2)c(Cl)c1 [Example 260, 2,6-dichloro-N^1-(2-(cyclopropanecarboxamido)pyridin-4-yl)-N^4,N^4-dimethylterephthalamide]	~0.027 µM
O=C(Nc1ccncc1)c1ccccc1Br [Example 271, 2-bromo-N-(pyridine-4-yl)benzamide]	~0.81 µM
O=C(Nc1ccncc1F)c1c(Cl)cccc1Cl [Example 272, 2,6-dichloro-N-(3-fluoropyridin-4-yl)benzamide]	~0.19 µM
N#Cc1cc(Cl)c(C(=O)Nc2ccnc(N)c2)c(Cl)c1 [Example 281, N-(2-aminopyridin-4-yl)-2,6-dichloro-4-cyanobenzamide]	~0.093 µM
O=C(Nc1cc(NC(=O)c2c(Cl)cccc2Cl)ccn1)Oc1ccccc1 [Example 350, phenyl 4-(2,6-dichlorobenzamido)pyridin-2-ylcarbamate]	~0.062 µM
Cc1cc(Nc2cc(NC(=O)c3c(Cl)cc(Cl)cc3Cl)ccn2)nc(N2CCOCC2)n1 [Example 380, 2,4,6-trichloro-N-(2-(6-methyl-2-morpholinopyrimidin-4-ylamino)pyridin-4-yl)benzamide]	~0.0035 µM
Cc1cc(Nc2cc(NC(=O)c3c(Cl)cc(CNCC4CC4)cc3Cl)ccn2)nc(N2CCOCC2)n1 [Example 406, 2,6-dichloro-4-((cyclopropylmethylamino)-methyl)-N-(2-(6-methyl-2-morpholinopyrimidin-4-ylamino)pyridin-4-yl)benzamide]	~0.0036 µM
Cc1cc(Nc2cc(NC(=O)c3c(Cl)cc(C#N)cc3Cl)ccn2)nc(N(CCO)CCO)n1 [Example 415, N-(2-(2-(bis(2-hydroxyethyl)amino)-6-methylpyrimidin-4-ylamino)pyridin-4-yl)-2,6-dichloro-4-cyanobenzamide]	~0.0005 µM
Cc1cc(Nc2cc(NC(=O)c3c(Cl)cc(CO)cc3Cl)ccn2)nc(NCCO)n1 [Example 416, 2,6-dichloro-N-(2-(2-(2-hydroxyethylamino)-6-methylpyrimidin-4-ylamino)pyridin-4-yl)-4-(hydroxymethyl)-benzamide]	~0.0006 µM
Cc1cc(Nc2cc(NC(=O)c3c(Cl)cccc3Cl)ccn2)nc(N)n1 [Example 495, N-(2-(2-amino-6-methylpyrimidin-4-ylamino)pyridin-4-yl)-2,6-dichlorobenzamide]	~0.0015 µM
CCc1cc(Nc2cc(NC(=O)c3c(Cl)cccc3Cl)ccn2)nc(N2CCNCC2)n1 [Example 534, 2,6-dichloro-N-(2-(6-ethyl-2-(piperazin-1-yl)pyrimidin-4-ylamino)pyridin-4-yl)benzamide]	~0.0018 µM
CNc1nc(Nc2cc(NC(=O)c3c(Cl)cccc3Cl)ccn2)cc(C(C)C)n1 [Example 551, 2,6-dichloro-N-(2-(6-isopropyl-2-(methylamino)pyrimidin-4-ylamino)pyridin-4-yl)benzamide]	~0.0033 µM
CCc1cc(Nc2cc(NC(=O)c3c(Cl)cccc3Cl)ccn2)nc(N2CCC(F)(F)CC2)n1 [Example 572, 2,6-dichloro-N-(2-(2-(4,4-difluoropiperidin-1-yl)-6-ethylpyrimidin-4-ylamino)pyridin-4-yl)benzamide]	~0.08 µM
CCc1cc(Nc2cc(NC(=O)c3c(Cl)cccc3Cl)ccn2)nc(N(CCO)CCO)n1 [Example 579, N-(2-(2-(bis(2-hydroxyethyl)amino)-6-ethylpyrimidin-4-ylamino)pyridin-4-yl)-2,6-dichlorobenzamide]	~0.0006 µM

Same assay, conditions: measured at 10 μM concentration of compound

SMILES	inhibition at 10 µM
O=C(Nc1ccc(NC(=O)C2CC2)nc1)c1c(Cl)cccc1Cl [2,6-dichloro-N-(6-(cyclopropanecarboxamido)-pyridin-3-yl)benzamide, reference compound]	~5.7%
